Test results as given in ChEMBL document CHEMBL4371010, “Thermodynamics of DNA Minor Groove Binders” (2019).
In brackets after ≈: the same amount, converted by molar mass.

Legend:
[1] = system: Clostridioides difficile; test: […] activity against Clostridium difficile; type: functional
[2] = system: Staphylococcus aureus; test: Antibacterial activity against methicillin-resistant Staphylococcus aureus; type: functional

Compound | MIC [1] [µg/mL] | MIC [2] [µM]
Cn1cc(NC(=O)c2cc(NC(=O)c3ccc(/C=C/c4cnc5ccccc5c4)cc3)cn2C)cc1C(=O)NCCN1CCOCC1 [MGB-BP-3] | 1 (≈ 1.58 µM) | 
CN[C@H](CC(C)C)C(=O)N[C@H]1C(=O)N[C@@H](CC(N)=O)C(=O)N[C@H]2C(=O)N[C@H]3C(=O)N[C@H](C(=O)N[C@H](C(=O)O)c4cc(O)cc(O)c4-c4cc3ccc4O)[C@H](O)c3ccc(c(Cl)c3)Oc3cc2cc(c3O[C@@H]2O[C@H](CO)[C@@H](O)[C@H](O)[C@H]2O[C@H]2C[C@](C)(N)[C@H](O)[C@H](C)O2)Oc2ccc(cc2Cl)[C@H]1O [VANCOMYCIN] | 1 (≈ 0.69 µM) | 
COc1cccc(C(=O)Nc2cc(C(=O)Nc3cc(C(=O)Nc4cc(C(=O)NCCCN(C)C)n(C)c4)n(CCC(C)C)c3)n(C)c2)c1 |  | 2 (≈ 1.32 µg/mL)
CC1(C)S[C@@H]2[C@H](NC(=O)[C@H](N)c3ccc(O)cc3)C(=O)N2[C@H]1C(=O)O [AMOXICILLIN] |  | 16.1 (≈ 5.88 µg/mL)
